Results: ChEMBL document CHEMBL1150754, “Chemical and pharmaceutical studies on medicinal plants in Paraguay. Geraniin, an angiotensin-converting enzyme inhibitor from "paraparai mi," Phyllanthus niruri” (J Nat Prod, 1988)

These molecules were tested against Angiotensin-converting enzyme (Homo sapiens, UniProt P12821) (assay: Inhibition of ACE by fluorometric assay).
Chain of Angiotensin-converting enzyme (P12821 whole entry): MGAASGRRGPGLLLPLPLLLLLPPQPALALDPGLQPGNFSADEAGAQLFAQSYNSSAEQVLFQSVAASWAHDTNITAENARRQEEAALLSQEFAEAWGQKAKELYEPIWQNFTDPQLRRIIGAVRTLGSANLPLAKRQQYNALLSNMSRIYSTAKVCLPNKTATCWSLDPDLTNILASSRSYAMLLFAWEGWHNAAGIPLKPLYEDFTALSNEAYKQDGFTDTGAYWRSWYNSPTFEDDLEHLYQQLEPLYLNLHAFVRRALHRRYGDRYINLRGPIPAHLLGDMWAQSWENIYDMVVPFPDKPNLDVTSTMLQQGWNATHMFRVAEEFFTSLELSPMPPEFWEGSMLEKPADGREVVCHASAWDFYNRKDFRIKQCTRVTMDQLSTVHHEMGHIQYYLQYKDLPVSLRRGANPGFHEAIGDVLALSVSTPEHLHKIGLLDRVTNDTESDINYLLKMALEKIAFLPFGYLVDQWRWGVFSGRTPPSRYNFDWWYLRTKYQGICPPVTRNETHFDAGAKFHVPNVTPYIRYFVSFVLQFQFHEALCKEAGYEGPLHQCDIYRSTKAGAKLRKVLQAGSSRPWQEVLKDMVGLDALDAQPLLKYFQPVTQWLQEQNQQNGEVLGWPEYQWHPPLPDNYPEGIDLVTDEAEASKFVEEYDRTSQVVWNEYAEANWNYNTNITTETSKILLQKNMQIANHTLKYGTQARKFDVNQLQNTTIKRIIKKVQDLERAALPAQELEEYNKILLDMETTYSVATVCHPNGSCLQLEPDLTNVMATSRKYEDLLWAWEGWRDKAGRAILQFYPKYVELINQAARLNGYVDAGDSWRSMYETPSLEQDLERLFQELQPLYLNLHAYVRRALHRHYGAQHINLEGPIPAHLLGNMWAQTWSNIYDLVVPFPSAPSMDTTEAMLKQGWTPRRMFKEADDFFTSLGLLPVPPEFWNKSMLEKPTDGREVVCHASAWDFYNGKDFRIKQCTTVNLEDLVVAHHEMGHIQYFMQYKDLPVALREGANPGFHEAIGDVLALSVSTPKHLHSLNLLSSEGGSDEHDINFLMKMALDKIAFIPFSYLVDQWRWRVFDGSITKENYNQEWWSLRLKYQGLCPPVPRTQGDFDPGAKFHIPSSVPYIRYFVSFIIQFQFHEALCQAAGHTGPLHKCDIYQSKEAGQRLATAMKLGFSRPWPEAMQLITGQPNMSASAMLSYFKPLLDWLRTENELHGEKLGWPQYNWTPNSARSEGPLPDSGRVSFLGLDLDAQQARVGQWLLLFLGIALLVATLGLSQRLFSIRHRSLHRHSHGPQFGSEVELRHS

| SMILES | IC50 [mM] |
| --- | --- |
| O=C(O[C@@H]1O[C@@H]2COC(=O)c3cc(O)c(O)c(O)c3-c3c(cc(O)c(O)c3O)C(=O)O[C@H]([C@H]1O)[C@@H]2O)c1cc(O)c(O)c(O)c1 [CORILAGIN] | 3.7 |
| O=c1oc2c(O)c(O)cc3c(=O)oc4c(O)c(O)cc1c4c23 [ELLAGIC ACID] | 5 |
| O=C1O[C@H]2[C@@H]3OC(=O)c4cc(O)c(O)c(O)c4-c4c(cc(O)c(O)c4O)C(=O)OC[C@H]2O[C@@H](OC(=O)c2cc(O)c(O)c(O)c2)[C@@H]3OC(=O)c2cc(O)c(O)c3c2[C@@H]2C1=CC(=O)[C@](O)(O3)C2(O)O [GERANIIN] | 0.4 |
| O=C(O)c1cc(O)c(O)c(O)c1 [GALLIC ACID] | 7.7 |
